One compound from patent US12595503B2, “Reference dataset-based, spectrometric characterization of cell substrates using sub-libraries” (priority 2021, dated 2026) can be followed below.

This assay deals with E. coli. Nature of the assay: MALDI-TOF (MALDI Biotyper) growth-based resistance/susceptibility determination of the test cell substrate in CTX-containing Mueller-Hinton nutrient medium. The settings on record: CTX 1 μg/mL; for logarithm of the similarity measure (log(score)), best match of second preparation: 4 h incubation. Also noted: species or system Escherichia coli. From the text: As proof of principle for the feasibility of the disclosed procedure, a cefotaxime-susceptible E. coli was selected as the test cell substrate and applied to the determination of a characteristic of the microorganism under investigation using a MALDI Biotyper® system. For this purpose, the resistance/susceptibility of the test cell substrate to a growth-influencing substance, in this example the antibiotic cefotaxime (CTX), was investigated using a prior art method and the method disclosed herein.
The test cell substrate was incubated in nutrient medium, Mueller-Hinton nutrient medium (first preparation—FIG. 2), and the same nutrient medium containing CTX at a concentration of 1 μg/mL (second preparation—FIGS. 3 and 4). The first preparation served as a growth control. The second preparation was used to determine the resistance/susceptibility of the test cell substrate to CTX.
To create the preparations, a large volume (stock suspension) of a cell suspension, here about 12 mL, otherwise regularly 10 to 50 mL, of the test cell substrate was prepared in Mueller-Hinton nutrient medium, a liquid nutrient medium. The concentration of the test cell substrate in the stock suspension was determined densitometrically in order to use an appropriate and equal amount of the test cell substrate for the first and second preparations. A small volume was taken from this stock suspension for the first preparation and transferred to a well of a microtiter plate. Since the first preparation was designed as a growth control, no antibiotic was present in the well. Simultaneously, for a second preparation, the same volume of stock suspension was removed and transferred to another well of the microtiter plate, thereby dissolving the antibiotic CTX, which was present in dried form in the well of the second preparation, for a final concentration of 1 μg/mL. The microtiter plate was then agitated to ensure complete dissolution and homogeneous distribution of the antibiotic in the cavity of the second preparation. Further preparations in the form of a concentration-dilution series for determining of a minimum inhibitory concentration (MIC) of the antibiotic CTX is easy to generate by selectively dissolving the dried CTX in additional wells of the microtiter plate. For example, a CTX concentration of 0.5 μg/mL can be set in the Mueller-Hinton nutrient medium in a third well for another preparation, and a CTX concentration of 2 μg/mL can be set in a fourth well for yet another preparation. Thus, the dilution series can comprise the CTX concentrations 0.5, 1 and 2 μg/mL, while additional dilution steps, e.g., 0.25 or 4 μg/mL can be included. Such a dilution series can also be performed in dilution steps of different sizes of the CTX concentration. […]

`CO/N=C(\C(=O)N[C@@H]1C(=O)N2C(C(=O)O)=C(COC(C)=O)CS[C@H]12)c1csc(N)n1` [CTX, cefotaxime]: the “logarithm of the similarity measure (log(score)), best match of second preparation” value is on record as 1.83 (compared with entire reference library (prior art method), best match Citrobacter farmeri, >=1.7 read as growth/resistance) and 1.13 (compared with first sub-library (five best E. coli reference datasets), <1.7 read as no growth/susceptibility). Besides, the “property resistance or susceptibility to CTX” value by setting is: (compared with entire reference library (prior art method), patent calls this result false-positive) “CTX-resistant”; (compared with first sub-library (method of the invention)) “CTX-susceptible”.
